Test results reported in ChEMBL document CHEMBL3612055, “Design, synthesis and biological evaluation of 1,3-diphenyl-1H-pyrazole derivatives containing benzimidazole skeleton as potential anticancer and apoptosis inducing agents” (Eur J Med Chem, 2015).

Legend:
A549 = test: Anticancer activity against human A549 cells assessed as reduction in cell growth incubated for 48 hrs by MTT assay; format: functional, cell-based; details: A549, 48 h
MCF7 = test: Anticancer activity against human MCF7 cells assessed as reduction in cell growth incubated for 48 hrs by MTT assay; format: functional, cell-based; details: MCF7, 48 h
HeLa = test: Anticancer activity against human HeLa cells assessed as reduction in cell growth incubated for 48 hrs by MTT assay; format: functional, cell-based
HaCaT = test: Cytotoxic activity against human HaCaT cells assessed as reduction in cell growth incubated for 48 hrs by MTT assay; format: cell-based

SMILES | IC50 (A549) [µM] | IC50 (MCF7) [µM] | IC50 (HeLa) [µM] | IC50 (HaCaT) [µM]
Fc1ccc2[nH]c(-c3cn(-c4ccccc4)nc3-c3ccc(Cl)cc3)nc2c1 | 4.61 | 2.83 | 2.77 | > 50
Fc1ccc(-c2nn(-c3ccccc3)cc2-c2nc3ccccc3[nH]2)cc1 | 1.51 | 3.2 | 2.33 | > 50
COc1ccc(-c2nn(-c3ccccc3)cc2-c2nc3cc(OC)ccc3[nH]2)cc1 | 22.7 | 3.13 | 1.14 | > 50
Cc1cc2nc(-c3cn(-c4ccccc4)nc3-c3ccc(F)cc3)[nH]c2cc1C | > 50 | 27.2 | 10.2 | > 50
Clc1ccc2[nH]c(-c3cn(-c4ccccc4)nc3-c3ccccc3)nc2c1 | 2.37 | 1.96 | 3.48 | > 50
Clc1ccc(-c2nn(-c3ccccc3)cc2-c2nc3cc4ccccc4cc3[nH]2)cc1 | 7.73 | 13.9 | 8.13 | > 50
Fc1ccc2[nH]c(-c3cn(-c4ccccc4)nc3-c3ccccc3)nc2c1 | 1.72 | 2.43 | 3.61 | > 50
COc1ccc(-c2nn(-c3ccccc3)cc2-c2nc3cc(Cl)c(Cl)cc3[nH]2)cc1 | 7.33 | 13.2 | 6.6 | > 50
COc1ccc2[nH]c(-c3cn(-c4ccccc4)nc3-c3ccccc3)nc2c1 | 1.23 | 1.59 | 2.87 | > 50
Clc1ccc(-c2nn(-c3ccccc3)cc2-c2nc3ccccc3[nH]2)cc1 | 5.96 | 3.03 | 1.65 | > 50
FC(F)(F)c1ccc2[nH]c(-c3cn(-c4ccccc4)nc3-c3ccc(Cl)cc3)nc2c1 | 3.36 | 4.21 | 4.42 | 41.8
Fc1ccc(-c2nn(-c3ccccc3)cc2-c2nc3cc4ccccc4cc3[nH]2)cc1 | 21.5 | 9.24 | 23.6 | > 50
Cc1cc2nc(-c3cn(-c4ccccc4)nc3-c3ccc(Cl)cc3)[nH]c2cc1C | 17.7 | 13 | 21.8 | > 50
Cc1ccc2[nH]c(-c3cn(-c4ccccc4)nc3-c3ccc(Cl)cc3)nc2c1 | 4.64 | 8.23 | 5.36 | > 50
Cc1cc2nc(-c3cn(-c4ccccc4)nc3-c3ccccc3)[nH]c2cc1C | 14.5 | > 50 | 41.5 | > 50
COc1ccc(-c2nn(-c3ccccc3)cc2-c2nc3cc(F)ccc3[nH]2)cc1 | 1.98 | 1.51 | 1.74 | > 50
Fc1ccc(-c2nn(-c3ccccc3)cc2-c2nc3cc(C(F)(F)F)ccc3[nH]2)cc1 | 2.34 | 2.13 | 3.52 | > 50
O=Cc1cn(-c2ccccc2)nc1-c1ccc(Cl)cc1 | 29.5 | 9.65 | 15.5 | > 50
COc1ccc(-c2nn(-c3ccccc3)cc2-c2nc3cc(Cl)ccc3[nH]2)cc1 | 3.13 | 1.76 | 1.29 | > 50
Cc1ccc2[nH]c(-c3cn(-c4ccccc4)nc3-c3ccccc3)nc2c1 | 3.61 | 5.94 | 6.56 | > 50

SMILES | IC50 (A549) [µM] | IC50 (MCF7) [µM] | IC50 (HeLa) [µM] | IC50 (HaCaT) [µM]
c1ccc(-c2nn(-c3ccccc3)cc2-c2nc3cc4ccccc4cc3[nH]2)cc1 | 19.3 | 12.6 | 21.3 | > 50
Clc1cc2nc(-c3cn(-c4ccccc4)nc3-c3ccccc3)[nH]c2cc1Cl | 11.1 | 7.56 | 13.4 | 29.7
COc1ccc(-c2nn(-c3ccccc3)cc2-c2nc3cc(Br)ccc3[nH]2)cc1 | 6.37 | 1.83 | 1.06 | > 50
Fc1ccc(-c2nn(-c3ccccc3)cc2-c2nc3cc(Cl)c(Cl)cc3[nH]2)cc1 | 15.7 | 6.93 | 11.6 | 44.6
COc1ccc(-c2nn(-c3ccccc3)cc2-c2nc3cc(C)c(C)cc3[nH]2)cc1 | 5.85 | 12.8 | 8.93 | 21.4
COc1ccc(-c2nn(-c3ccccc3)cc2-c2nc3ccccc3[nH]2)cc1 | 2.36 | 2.54 | 3.67 | > 50
COc1ccc(-c2nn(-c3ccccc3)cc2-c2nc3cc4ccccc4cc3[nH]2)cc1 | 11.9 | 7.46 | 12.4 | > 50
Fc1ccc(-c2nn(-c3ccccc3)cc2-c2nc3cc(Br)ccc3[nH]2)cc1 | 5.83 | 3.21 | 4.94 | 21.8
Cc1ccc2[nH]c(-c3cn(-c4ccccc4)nc3-c3ccc(F)cc3)nc2c1 | 1.44 | 1.12 | 3.63 | > 50
O=c1[nH]cc(F)c(=O)[nH]1 [FLUOROURACIL] | 2.13 | 2.36 | 4.6 | 15.3
Fc1ccc(-c2nn(-c3ccccc3)cc2-c2nc3cc(Cl)ccc3[nH]2)cc1 | 1.32 | 2.23 | 2.77 | > 50
COc1ccc(-c2nn(-c3ccccc3)cc2-c2nc3cc(C(F)(F)F)ccc3[nH]2)cc1 | 4.82 | 5.73 | 2.76 | > 50
Clc1ccc(-c2nn(-c3ccccc3)cc2-c2nc3cc(Br)ccc3[nH]2)cc1 | 2.17 | 1.92 | 2.16 | > 50
FC(F)(F)c1ccc2[nH]c(-c3cn(-c4ccccc4)nc3-c3ccccc3)nc2c1 | 5.93 | 2.66 | 1.92 | 37.2
COc1ccc2[nH]c(-c3cn(-c4ccccc4)nc3-c3ccc(F)cc3)nc2c1 | 1.96 | 0.97 | 7.51 | > 50
O=Cc1cn(-c2ccccc2)nc1-c1ccc(F)cc1 | 8.66 | 24.8 | 16.6 | > 50
Clc1ccc(-c2nn(-c3ccccc3)cc2-c2nc3cc(Cl)c(Cl)cc3[nH]2)cc1 | 19.1 | 48.3 | 12.1 | > 50
COc1ccc2[nH]c(-c3cn(-c4ccccc4)nc3-c3ccc(Cl)cc3)nc2c1 | 2.42 | 1.76 | 3.63 | > 50
COc1ccc(-c2nn(-c3ccccc3)cc2-c2nc3cc(C)ccc3[nH]2)cc1 | 5.07 | 6.61 | 3.29 | > 50
c1ccc(-c2nn(-c3ccccc3)cc2-c2nc3ccccc3[nH]2)cc1 | 2.71 | 3.19 | 1.55 | > 50
